Experimental data: article PMC5585256 (Scientific Reports, 2017)
Marks after values point to notes of the source that are not given here.

Experiments:
Assay type in all cases: biochemical
[1] = target: T1, WT hBChE (human plasma-derived butyrylcholinesterase) (Homo sapiens, UniProt P06276); experiment: Inhibition of BTC hydrolysis activity of WT hBChE; conditions: for Fold increase in sensitivity relative to WT pBChE: WT hBChE vs WT pBChE
T1 construct: we first compared WT human plasma-derived (hBChE) to pBChE; from tissue; host or cells: human plasma
Description: (§1) To this end, BTC hydrolysis was analyzed following a 30-minute incubation with the inhibitors.
(§2) The four inhibitors were purchased from Sigma (St Louis, MO).
(§3) Preparations of BChE and variants thereof were incubated in 96-well plate format with indicated concentrations of the inhibitors for 30 min at room temperature followed by activity measurements based on modified Ellman assay using 1 mM BTC as the substrate. IC50 values were determined by non-linear regression (GraphPad Prism) fit according to Equation (4).

[2] = target: T2, WT pBChE (plant-derived human butyrylcholinesterase) (Homo sapiens, UniProt P06276); experiment: Inhibition of BTC hydrolysis activity of WT pBChE; conditions: for Fold increase in sensitivity relative to WT pBChE: WT pBChE (reference)
T2 construct: barley alpha-amylase signal peptide (N); made in house; host or cells: Nicotiana benthamiana (transient, MagnICON/TMV vector, Agrobacterium infiltration)
Description: as §1, §2, §3

[3] = target: T3, pBChEV2 (F227A/S287G/A328W/Y332A) (Homo sapiens, UniProt P06276, A356W/F255A/S315G/Y360A); experiment: Inhibition of BTC hydrolysis activity of pBChEV2; conditions: for Fold increase in sensitivity relative to WT pBChE: pBChEV2 vs WT pBChE
T3 construct: hexahistidine (C); barley alpha-amylase signal peptide (N); made in house; host or cells: Nicotiana benthamiana (transient, MagnICON/TMV vector)
T3 sequence (P06276 29-602 F255A/S315G/A356W/Y360A): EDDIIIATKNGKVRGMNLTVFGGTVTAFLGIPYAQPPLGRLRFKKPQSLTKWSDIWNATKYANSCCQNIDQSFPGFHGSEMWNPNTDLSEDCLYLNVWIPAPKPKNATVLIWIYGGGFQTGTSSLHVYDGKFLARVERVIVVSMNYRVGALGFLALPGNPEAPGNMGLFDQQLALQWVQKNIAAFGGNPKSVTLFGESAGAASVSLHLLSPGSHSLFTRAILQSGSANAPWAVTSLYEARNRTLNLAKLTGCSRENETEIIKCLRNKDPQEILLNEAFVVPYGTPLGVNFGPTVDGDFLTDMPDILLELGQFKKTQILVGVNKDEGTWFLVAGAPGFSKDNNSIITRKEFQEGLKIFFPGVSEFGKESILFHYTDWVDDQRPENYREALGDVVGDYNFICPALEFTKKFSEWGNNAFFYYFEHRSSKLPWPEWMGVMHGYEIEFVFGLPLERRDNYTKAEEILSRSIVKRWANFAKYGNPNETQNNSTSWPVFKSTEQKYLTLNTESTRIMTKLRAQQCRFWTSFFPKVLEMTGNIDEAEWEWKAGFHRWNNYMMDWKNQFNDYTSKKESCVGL
Description: as §1, §2, §3

[4] = target: T4, pBChEV3 (A199S/S287G/A328W/Y332G) (Homo sapiens, UniProt P06276, A227S/A356W/S315G/Y360G); experiment: Inhibition of BTC hydrolysis activity of pBChEV3; conditions: for Fold increase in sensitivity relative to WT pBChE: pBChEV3 vs WT pBChE
T4 construct: hexahistidine (C); barley alpha-amylase signal peptide (N); made in house; host or cells: Nicotiana benthamiana (transient, MagnICON/TMV vector)
T4 sequence (P06276 29-602 A227S/S315G/A356W/Y360G): as the sequence (P06276 29-602 F255A/S315G/A356W/Y360A) above, with A199S, A227F, A332G counted along it
Description: as §1, §2, §3

[5] = target: T5, pBChEV4 (A199S/F227A/S287G/A328W/Y332G) (Homo sapiens, UniProt P06276, A227S/A356W/F255A/S315G/Y360G); experiment: Inhibition of BTC hydrolysis activity of pBChEV4; conditions: for Fold increase in sensitivity relative to WT pBChE: pBChEV4 vs WT pBChE
T5 construct: hexahistidine (C); barley alpha-amylase signal peptide (N); made in house; host or cells: Nicotiana benthamiana (transient, MagnICON/TMV vector)
T5 sequence (P06276 29-602 A227S/F255A/S315G/A356W/Y360G): as the sequence (P06276 29-602 F255A/S315G/A356W/Y360A) above, with A199S, A332G counted along it
Description: as §1, §2, §3

[6] = target: T6, pBChEV5 (F227A/S287G/A328W/Y332G) (Homo sapiens, UniProt P06276, A356W/F255A/S315G/Y360G); experiment: Inhibition of BTC hydrolysis activity of pBChEV5; conditions: for Fold increase in sensitivity relative to WT pBChE: pBChEV5 vs WT pBChE
T6 construct: hexahistidine (C); barley alpha-amylase signal peptide (N); made in house; host or cells: Nicotiana benthamiana (transient, MagnICON/TMV vector)
T6 sequence (P06276 29-602 F255A/S315G/A356W/Y360G): as the sequence (P06276 29-602 F255A/S315G/A356W/Y360A) above, with A332G counted along it
Description: as §1, §2, §3

[7] = target: T7, WT pBChE (Homo sapiens, UniProt P06276); experiment: Inhibition rate constant for paraoxon, WT pBChE; conditions: enzyme WT pBChE
T7 construct: barley alpha-amylase signal peptide (N); made in house; host or cells: Nicotiana benthamiana (transient, MagnICON/TMV vector, Agrobacterium infiltration)

[8] = target: T8, pBChEV4 (Homo sapiens, UniProt P06276, A227S/A356W/F255A/S315G/Y360G); experiment: Inhibition rate constant for paraoxon, pBChEV4; conditions: enzyme pBChEV4
T8 construct: hexahistidine (C); barley alpha-amylase signal peptide (N); made in house; host or cells: Nicotiana benthamiana (transient, MagnICON/TMV vector)
T8 sequence (P06276 29-602 A227S/F255A/S315G/A356W/Y360G): as the sequence (P06276 29-602 F255A/S315G/A356W/Y360A) above, with A199S, A332G counted along it

[9] = Radiometric (−)-cocaine hydrolysis assay; conditions: substrate (−)-cocaine

With `CN(C)C(=O)Oc1cccc([N+](C)(C)C)c1` [Neostigmine, [3-(dimethylcarbamoyloxy)phenyl]-trimethylazanium;bromide] the IC50 [1] was 162 nM, the “Fold increase in sensitivity relative to WT pBChE” value [1] was “(1)^**** fold” and the IC50 [2] was 229 nM. For the same molecule, the “Fold increase in sensitivity relative to WT pBChE” value [2] was “(1) fold”, the IC50 [3] was 17.8 nM and the “Fold increase in sensitivity relative to WT pBChE” value [3] was “(13)^**** fold”. For the same molecule, the “Fold increase in sensitivity relative to WT pBChE” value ([3]; listed as neostigmine) was 10–20 fold, the IC50 [4] was 204 nM and the “Fold increase in sensitivity relative to WT pBChE” value [4] was “(1) fold”. For the same molecule, the “Fold increase in sensitivity relative to WT pBChE” value ([4]; listed as neostigmine) was “near WT levels”, the IC50 [5] was 155 nM and the “Fold increase in sensitivity relative to WT pBChE” value [5] was “(1)^**** fold”. For the same molecule, the “Fold increase in sensitivity relative to WT pBChE” value ([5]; listed as neostigmine) was “near WT levels”, the IC50 [6] was 13.2 nM and the “Fold increase in sensitivity relative to WT pBChE” value [6] was “(17)^**** fold”. For the same molecule, the “Fold increase in sensitivity relative to WT pBChE” value ([6]; listed as neostigmine) was 10–20 fold.

In the case of `CCOP(=O)(OCC)Oc1ccc([N+](=O)[O-])cc1` [Paraoxon, diethyl (4-nitrophenyl) phosphate], the “Fold increase in sensitivity relative to WT pBChE” value [1] is reported as “(0.9) fold”, the “Fold increase in sensitivity relative to WT pBChE” value [2] is reported as “(1) fold” and the “Fold increase in sensitivity relative to WT pBChE” value [3] is reported as “(38)^**** fold”. The “Fold increase in sensitivity relative to WT pBChE” value ([3]; listed as paraoxon) was 40–50 fold, the “Fold increase in sensitivity relative to WT pBChE” value [4] was “(3)^**** fold” and the “Fold increase in sensitivity relative to WT pBChE” value ([4]; listed as paraoxon) was 3–7 fold. For the same molecule, the “Fold increase in sensitivity relative to WT pBChE” value [5] was “(6)^**** fold”, the “Fold increase in sensitivity relative to WT pBChE” value ([5]; listed as paraoxon) was 3–7 fold and the “Fold increase in sensitivity relative to WT pBChE” value [6] was “(46)^**** fold”. For the same molecule, the “Fold increase in sensitivity relative to WT pBChE” value ([6]; listed as paraoxon) was 40–50 fold, the “inhibition rate constant (ki)” value [7] was 52300 M⁻¹ s⁻¹ and the “inhibition rate constant (ki)” value [8] was 283000 M⁻¹ s⁻¹.

B1: WT pBChE (protein, UniProt P06276 29-602, looked up)
Cholinesterase: EDDIIIATKNGKVRGMNLTVFGGTVTAFLGIPYAQPPLGRLRFKKPQSLTKWSDIWNATKYANSCCQNIDQSFPGFHGSEMWNPNTDLSEDCLYLNVWIPAPKPKNATVLIWIYGGGFQTGTSSLHVYDGKFLARVERVIVVSMNYRVGALGFLALPGNPEAPGNMGLFDQQLALQWVQKNIAAFGGNPKSVTLFGESAGAASVSLHLLSPGSHSLFTRAILQSGSFNAPWAVTSLYEARNRTLNLAKLTGCSRENETEIIKCLRNKDPQEILLNEAFVVPYGTPLSVNFGPTVDGDFLTDMPDILLELGQFKKTQILVGVNKDEGTAFLVYGAPGFSKDNNSIITRKEFQEGLKIFFPGVSEFGKESILFHYTDWVDDQRPENYREALGDVVGDYNFICPALEFTKKFSEWGNNAFFYYFEHRSSKLPWPEWMGVMHGYEIEFVFGLPLERRDNYTKAEEILSRSIVKRWANFAKYGNPNETQNNSTSWPVFKSTEQKYLTLNTESTRIMTKLRAQQCRFWTSFFPKVLEMTGNIDEAEWEWKAGFHRWNNYMMDWKNQFNDYTSKKESCVGL
modifications: plant-expressed
In the case of B1, the k cat [9] is reported as 0.0433 s⁻¹.
